Data: patent publication US3992371A, “Penicillins substituted with heterocyclic and substituted phenyl groups” (Sumitomo Chemical Company, Limited, priority 1973, dated 1976)
Values after ≈ are worked out from the molar mass of the structure shown.

Assays:
Test in all cases: Minimal inhibitory concentration, agar dilution method
Type in all cases: cell-based
Proteus miravilis GN2425 = system: Proteus miravilis GN2425
Proteus vulgaris HV19 = system: Proteus vulgaris HV19
[1] = system: Klebsiella pneumoniae PCI602
Excerpt: (§1) When determined according to the agar dilution method, the penicillins (I) afford the minimal inhibitory concentrations against test microorganisms as shown in Table 2.

Escherichia coli NIHJ = system: Escherichia coli NIHJ
Excerpt: as §1

[2] = system: Pseudomonas aeruginosa 104
Excerpt: as §1

[3] = system: Staphylococcus aureus 209P
Excerpt: as §1

MIC (Proteus miravilis GN2425) [µg/mL]	MIC (Proteus vulgaris HV19) [µg/mL]	MIC [1] [µg/mL]	MIC (Escherichia coli NIHJ) [µg/mL]	MIC [2] [µg/mL]	MIC [3] [µg/mL]	Compound
6.25 (≈ 11.1 µM)	0.05 (≈ 0.0884 µM)	12.5 (≈ 22.1 µM)	3.13 (≈ 5.53 µM)	3.13 (≈ 5.53 µM)	1.56 (≈ 2.76 µM)	COc1ccc(C(NC(=O)c2cnc3ccc(C)nc3c2O)C(=O)NC2C(=O)N3C2SC(C)(C)C3C(=O)O)cc1 (stereo not drawn) [Example 44]
1.56 (≈ 2.82 µM)	0.05 (≈ 0.0905 µM)	12.5 (≈ 22.6 µM)	3.13 (≈ 5.66 µM)	3.13 (≈ 5.66 µM)	1.56 (≈ 2.82 µM)	CC1(C)SC2C(NC(=O)C(NC(=O)c3cnc4nc(N)ncc4c3O)c3cccc(N)c3)C(=O)N2C1C(=O)O (stereo not drawn) [Example 42]
3.13 (≈ 5.51 µM)	0.05 (≈ 0.0881 µM)	12.5 (≈ 22 µM)	3.13 (≈ 5.51 µM)	1.56 (≈ 2.75 µM)	1.56 (≈ 2.75 µM)	COc1cc(C(NC(=O)c2cnc3cccnc3c2O)C(=O)NC2C(=O)N3C2SC(C)(C)C3C(=O)O)ccc1O (stereo not drawn) [Example 64]
–	–	200 (≈ 529 µM)	–	–	–	CC1(C)S[C@@H]2[C@H](NC(=O)C(C(=O)O)c3ccccc3)C(=O)N2[C@H]1C(=O)O (stereo partly drawn) [Carbenicillin, reference compound]
3.13 (≈ 5.37 µM)	0.05 (≈ 0.0858 µM)	12.5 (≈ 21.5 µM)	1.56 (≈ 2.68 µM)	1.56 (≈ 2.68 µM)	1.56 (≈ 2.68 µM)	CC1(C)SC2C(NC(=O)C(NC(=O)c3cnc4cccnc4c3O)c3ccc(O)c([N+](=O)[O-])c3)C(=O)N2C1C(=O)O (stereo not drawn) [Example 62]
3.13 (≈ 5.84 µM)	0.2 (≈ 0.373 µM)	6.25 (≈ 11.7 µM)	3.13 (≈ 5.84 µM)	3.13 (≈ 5.84 µM)	0.78 (≈ 1.46 µM)	CC1(C)S[C@@H]2[C@H](NC(=O)C(NC(=O)c3cnc4ccccc4c3O)c3cccc(N)c3)C(=O)N2[C@H]1C(=O)O (stereo partly drawn) [Example 15]
12.5 (≈ 23.2 µM)	0.2 (≈ 0.371 µM)	12.5 (≈ 23.2 µM)	3.13 (≈ 5.8 µM)	1.56 (≈ 2.89 µM)	0.78 (≈ 1.45 µM)	CC1(C)SC2C(NC(=O)C(NC(=O)c3nc4ccccc4nc3O)c3cccc(F)c3)C(=O)N2C1C(=O)O (stereo not drawn) [Example 48]
6.25 (≈ 9.44 µM)	0.2 (≈ 0.302 µM)	6.25 (≈ 9.44 µM)	3.13 (≈ 4.73 µM)	6.25 (≈ 9.44 µM)	0.78 (≈ 1.18 µM)	CC(=O)Nc1cccc([C@@H](NC(=O)c2cnc3ccccc3c2OC(=O)C(C)(C)C)C(=O)N[C@@H]2C(=O)N3[C@@H]2SC(C)(C)[C@@H]3C(=O)O)c1 [Example 7, D-α-(4-pivaloyloxyquinoline-3-carboxamido)-m-acetylaminobenzylpenicillin]
1.56 (≈ 2.82 µM)	0.025 (≈ 0.0452 µM)	6.25 (≈ 11.3 µM)	0.78 (≈ 1.41 µM)	1.56 (≈ 2.82 µM)	0.78 (≈ 1.41 µM)	CC1(C)SC2C(NC(=O)C(NC(=O)c3cnc4cccnc4c3O)c3ccc(O)c(N)c3)C(=O)N2C1C(=O)O (stereo not drawn) [Example 63]
3.13 (≈ 5.84 µM)	0.39 (≈ 0.728 µM)	12.5 (≈ 23.3 µM)	3.13 (≈ 5.84 µM)	3.13 (≈ 5.84 µM)	0.78 (≈ 1.46 µM)	CC1(C)S[C@@H]2[C@H](NC(=O)C(NC(=O)c3cc4ccccc4nc3O)c3cccc(N)c3)C(=O)N2[C@H]1C(=O)O (stereo partly drawn) [Example 31]
6.25 (≈ 11.3 µM)	0.1 (≈ 0.181 µM)	12.5 (≈ 22.6 µM)	3.13 (≈ 5.65 µM)	1.56 (≈ 2.82 µM)	0.78 (≈ 1.41 µM)	CCn1ncc2c(O)c(C(=O)NC(C(=O)NC3C(=O)N4C3SC(C)(C)C4C(=O)O)c3ccc(N)cc3)cnc21 (stereo not drawn) [Example 59]
1.56 (≈ 2.88 µM)	0.025 (≈ 0.0461 µM)	6.25 (≈ 11.5 µM)	1.56 (≈ 2.88 µM)	1.56 (≈ 2.88 µM)	1.56 (≈ 2.88 µM)	CC1(C)SC2C(NC(=O)C(NC(=O)c3cnc4scnc4c3O)c3cccc(N)c3)C(=O)N2C1C(=O)O (stereo not drawn) [Example 40]
6.25 (≈ 10.8 µM)	0.1 (≈ 0.173 µM)	6.25 (≈ 10.8 µM)	3.13 (≈ 5.41 µM)	1.56 (≈ 2.7 µM)	1.56 (≈ 2.7 µM)	Cc1ccc2ncc(C(=O)NC(C(=O)NC3C(=O)N4C3SC(C)(C)C4C(=O)O)c3ccc(N(C)C)cc3)c(O)c2n1 (stereo not drawn) [Example 45]
1.56 (≈ 2.83 µM)	0.05 (≈ 0.0906 µM)	6.25 (≈ 11.3 µM)	0.78 (≈ 1.41 µM)	1.56 (≈ 2.83 µM)	0.78 (≈ 1.41 µM)	Cc1cc(C(NC(=O)c2cnc3cccnc3c2O)C(=O)NC2C(=O)N3C2SC(C)(C)C3C(=O)O)ccc1O (stereo not drawn) [Example 60]
12.5 (≈ 23.3 µM)	0.78 (≈ 1.45 µM)	12.5 (≈ 23.3 µM)	3.13 (≈ 5.83 µM)	0.78 (≈ 1.45 µM)	0.78 (≈ 1.45 µM)	CC1(C)S[C@@H]2[C@H](NC(=O)C(NC(=O)c3nc4ccccc4nc3O)c3cccc(N)c3)C(=O)N2[C@H]1C(=O)O (stereo partly drawn) [Example 14]
0.78 (≈ 1.42 µM)	0.025 (≈ 0.0454 µM)	6.25 (≈ 11.4 µM)	0.78 (≈ 1.42 µM)	0.78 (≈ 1.42 µM)	1.56 (≈ 2.83 µM)	Cc1ccc2ncc(C(=O)NC(C(=O)N[C@@H]3C(=O)N4[C@@H]3SC(C)(C)[C@@H]4C(=O)O)c3cccc(N)c3)c(O)c2n1 (stereo partly drawn) [Example 19]
1.56 (≈ 2.75 µM)	0.05 (≈ 0.0882 µM)	12.5 (≈ 22.1 µM)	3.13 (≈ 5.52 µM)	3.13 (≈ 5.52 µM)	1.56 (≈ 2.75 µM)	CNc1ncc2c(O)c(C(=O)NC(C(=O)NC3C(=O)N4C3SC(C)(C)C4C(=O)O)c3cccc(N)c3)cnc2n1 (stereo not drawn) [Example 43]

MIC (Proteus miravilis GN2425) [µg/mL]	MIC (Proteus vulgaris HV19) [µg/mL]	MIC [1] [µg/mL]	MIC (Escherichia coli NIHJ) [µg/mL]	MIC [2] [µg/mL]	MIC [3] [µg/mL]	Compound
3.13 (≈ 5.16 µM)	0.025 (≈ 0.0412 µM)	6.25 (≈ 10.3 µM)	3.13 (≈ 5.16 µM)	3.13 (≈ 5.16 µM)	1.56 (≈ 2.57 µM)	CC1(C)SC2C(NC(=O)C(NC(=O)c3cnc4nc(N5CCCC5)ncc4c3O)c3cccc(N)c3)C(=O)N2C1C(=O)O (stereo not drawn) [Example 53]
1.56 (≈ 2.61 µM)	0.025 (≈ 0.0418 µM)	6.25 (≈ 10.5 µM)	0.78 (≈ 1.31 µM)	1.56 (≈ 2.61 µM)	1.56 (≈ 2.61 µM)	COc1nc(OC)c2ncc(C(=O)NC(C(=O)NC3C(=O)N4C3SC(C)(C)C4C(=O)O)c3cccc(N)c3)c(O)c2n1 (stereo not drawn) [Example 57]
0.78 (≈ 1.35 µM)	0.025 (≈ 0.0431 µM)	6.25 (≈ 10.8 µM)	0.78 (≈ 1.35 µM)	1.56 (≈ 2.69 µM)	1.56 (≈ 2.69 µM)	CCNc1ccc2ncc(C(=O)NC(C(=O)NC3C(=O)N4C3SC(C)(C)C4C(=O)O)c3cccc(N)c3)c(O)c2n1 (stereo not drawn) [Example 55]
3.13 (≈ 5.68 µM)	0.39 (≈ 0.708 µM)	12.5 (≈ 22.7 µM)	3.13 (≈ 5.68 µM)	3.13 (≈ 5.68 µM)	0.78 (≈ 1.42 µM)	CC1(C)S[C@@H]2[C@H](NC(=O)C(NC(=O)c3cnc4cc(N)ccc4c3O)c3cccc(N)c3)C(=O)N2[C@H]1C(=O)O (stereo partly drawn) [Example 27]
1.56 (≈ 2.82 µM)	0.025 (≈ 0.0452 µM)	12.5 (≈ 22.6 µM)	0.78 (≈ 1.41 µM)	1.56 (≈ 2.82 µM)	0.78 (≈ 1.41 µM)	CC1(C)SC2C(NC(=O)C(NC(=O)c3cnc4cccnc4c3O)c3ccc(O)c(O)c3)C(=O)N2C1C(=O)O (stereo not drawn) [Example 61]
3.13 (≈ 5.69 µM)	0.39 (≈ 0.71 µM)	–	6.25 (≈ 11.4 µM)	3.13 (≈ 5.69 µM)	0.78 (≈ 1.42 µM)	Cc1ccc2c(O)c(C(=O)NC(C(=O)N[C@@H]3C(=O)N4[C@@H]3SC(C)(C)[C@@H]4C(=O)O)c3cccc(N)c3)cnc2c1 (stereo partly drawn) [Example 16]
3.13 (≈ 5.67 µM)	0.05 (≈ 0.0906 µM)	12.5 (≈ 22.7 µM)	1.56 (≈ 2.83 µM)	3.13 (≈ 5.67 µM)	1.56 (≈ 2.83 µM)	Cc1ncc2c(O)c(C(=O)NC(C(=O)NC3C(=O)N4C3SC(C)(C)C4C(=O)O)c3cccc(N)c3)cnc2n1 (stereo not drawn) [Example 58]
12.5 (≈ 23.3 µM)	0.78 (≈ 1.45 µM)	12.5 (≈ 23.3 µM)	6.25 (≈ 11.6 µM)	6.25 (≈ 11.6 µM)	1.56 (≈ 2.91 µM)	CC1(C)S[C@@H]2[C@H](NC(=O)[C@H](NC(=O)c3nnc4ccccc4c3O)c3cccc(N)c3)C(=O)N2[C@H]1C(=O)O [Example 6, D-α-(4-hydroxycinnoline-3-carboxamido)-m-aminobenzylpenicillin]
3.13 (≈ 5.39 µM)	0.2 (≈ 0.344 µM)	12.5 (≈ 21.5 µM)	3.13 (≈ 5.39 µM)	3.13 (≈ 5.39 µM)	0.78 (≈ 1.34 µM)	CC1(C)S[C@@H]2[C@H](NC(=O)C(NC(=O)c3cnc4cc([N+](=O)[O-])ccc4c3O)c3cccc(N)c3)C(=O)N2[C@H]1C(=O)O (stereo partly drawn) [Example 25]
1.56 (≈ 2.82 µM)	0.05 (≈ 0.0905 µM)	12.5 (≈ 22.6 µM)	1.56 (≈ 2.82 µM)	0.78 (≈ 1.41 µM)	1.56 (≈ 2.82 µM)	CC1(C)SC2C(NC(=O)C(NC(=O)c3cnc4cccnc4c3S)c3cccc(N)c3)C(=O)N2C1C(=O)O (stereo not drawn) [Example 37]
6.25 (≈ 10 µM)	0.1 (≈ 0.16 µM)	12.5 (≈ 20 µM)	3.13 (≈ 5.02 µM)	3.13 (≈ 5.02 µM)	1.56 (≈ 2.5 µM)	CCOC(=O)Oc1c(C(=O)N[C@@H](C(=O)N[C@@H]2C(=O)N3[C@@H]2SC(C)(C)[C@@H]3C(=O)O)c2ccc(OC)cc2)cnc2cccnc12 [Example 3, D-α-(4-ethoxycarbonyloxy-1,5-naphthyridine-3-carboxamido)-p-methoxybenzylpenicillin]
0.78 (≈ 1.35 µM)	0.025 (≈ 0.0431 µM)	3.13 (≈ 5.4 µM)	0.78 (≈ 1.35 µM)	0.78 (≈ 1.35 µM)	1.56 (≈ 2.69 µM)	CN(C)c1ccc2ncc(C(=O)NC(C(=O)N[C@@H]3C(=O)N4[C@@H]3SC(C)(C)[C@@H]4C(=O)O)c3cccc(N)c3)c(O)c2n1 (stereo partly drawn) [Example 22]
3.13 (≈ 5.49 µM)	0.2 (≈ 0.351 µM)	6.25 (≈ 11 µM)	3.13 (≈ 5.49 µM)	3.13 (≈ 5.49 µM)	0.78 (≈ 1.37 µM)	CC1(C)S[C@@H]2[C@H](NC(=O)C(NC(=O)c3cnc4cc(Cl)ccc4c3O)c3ccc(N)cc3)C(=O)N2[C@H]1C(=O)O (stereo partly drawn) [Example 17]
3.13 (≈ 5.24 µM)	0.05 (≈ 0.0837 µM)	12.5 (≈ 20.9 µM)	3.13 (≈ 5.24 µM)	3.13 (≈ 5.24 µM)	1.56 (≈ 2.61 µM)	COc1nc(OC)c2c(O)c(C(=O)NC(C(=O)NC3C(=O)N4C3SC(C)(C)C4C(=O)O)c3ccc(N)cc3)cnc2n1 (stereo not drawn) [Example 32]
0.78 (≈ 1.31 µM)	0.025 (≈ 0.0421 µM)	6.25 (≈ 10.5 µM)	0.78 (≈ 1.31 µM)	0.78 (≈ 1.31 µM)	1.56 (≈ 2.63 µM)	CC(=O)Nc1ccc2ncc(C(=O)NC(C(=O)N[C@@H]3C(=O)N4[C@@H]3SC(C)(C)[C@@H]4C(=O)O)c3cccc(N)c3)c(O)c2n1 (stereo partly drawn) [Example 26]
0.78 (≈ 1.45 µM)	0.025 (≈ 0.0465 µM)	6.25 (≈ 11.6 µM)	0.78 (≈ 1.45 µM)	0.78 (≈ 1.45 µM)	1.56 (≈ 2.9 µM)	CC1(C)SC2C(NC(=O)C(NC(=O)c3cnc4cncnc4c3O)c3cccc(N)c3)C(=O)N2C1C(=O)O (stereo not drawn) [Example 33]
